Test results reported in patent publication US11376271B1, “Methods of ameliorating the effects of alcoholic liver damage” (FULGENT LIFE INC., priority 2021, dated 2022).

Columns and labels:
AML12 cells = experiment: Rescue from hydrogen peroxide (HP) genotoxicity: cell survival and NAD+ level; assay type: cell-based; details: 3 h
Procedure: Because the increasing extent of NAD+ concentration is of interest, whether NADH can improve the cell survival rate under the stressful conditions of depletion of NAD+ was also assessed. To that end, as genotoxicity can lead to DNA damage, activate poly(ADP-ribose) polymerases and induce NAD+ depletion, genotoxicity was tested. Strong genotoxicity will lead to severe consumption of NAD+ by cells, resulting in cell death. To test genotoxicity, AML12 cells were treated with 500 μM hydrogen peroxide (HP) for 3 hours in the presence or absence of 1 mM NADH, and then the cells were counted and NAD+ was detected in the samples co-treated with NADH (1 mM) or its vehicle. FIG. 4A is a graph comparing the cell survival rate of the HP treated cells, NADH treated cells, and the HP+NADH treated cells relative to a control. And FIG. 4B is a graph comparing the NAD+ level of the HP treated cells, NADH treated cells, and the HP+NADH treated cells relative to a control. The cell survival rates and cellular NAD+ levels in FIGS. 4A-B are expressed as mean±SD.
The effects of NADH and NMN at a lower concentration (250 μM) on AML12 cells was also tested in a separate assay. Specifically, AML12 cells were treated with 500 μM HP in the presence or absence of 250 μm NADH or NMN for 3 h. FIG. 4C is a graph comparing the cell survival rate of the HP treated cells, HP+NADH treated cells, and the HP+NMN treated cells relative to a control. And FIG. 4D is a graph comparing the NAD+ level of the HP treated cells, HP+NADH treated cells, and the HP+NMN treated cells relative to a control. The cell survival rate and cellular NAD+ levels in FIGS. 4C-D are expressed as mean±SD.

male C57BL/6J mice [1] = experiment: Liver MDA and SOD after acute alcohol ingestion; assay type: in vivo; details: 500 mg/kg intragastric 15 min prior to 8 ml/kg ethanol; liver 6 h after alcohol
Procedure: Six hours after treatment with alcohol, liver tissues were taken for determination of MDA and SOD. Liver samples were prepared with homogenization in cold isotonic saline. The homogenate (10%, w/v) was centrifuged at 4500 g for 10 minutes and the supernatant was used for biochemical analysis. The MDA, SOD and TG levels were determined with commercial kits (Abcam, #ab118970; Thermofisher, #EIASODC and Abcam, ab65336) according to the manufacturer's instructions. The results were normalized to the total protein determined by BCA Protein Assay Kit (Abcam, #ab102536) according to the manufacturer's instructions.

male C57BL/6J mice [2] = experiment: Liver histopathology by Oil Red O staining; assay type: in vivo; details: 500 mg/kg intragastric 15 min prior to 8 ml/kg ethanol
Procedure: Liver histopathology was detected by Oil Red 0 staining. According to the standard operating procedure, some liver tissues were fixed for histopathological assessment. The other part of the liver was stored at −80° C. […] frozen sections were stained with Oil Red 0 to detect liver steatosis. The stained sections were examined by a 400× optical microscope. The level of VLDL in serum samples was examined with a Bio-Tek synergy2 Multiscan Spectrum (Botten Instruments Co.).

male C57BL/6J mice [3] = experiment: Liver triglyceride and serum VLDL (lipid metabolism); assay type: in vivo; details: 500 mg/kg intragastric 15 min prior to 8 ml/kg ethanol
Procedure: Liver samples were prepared with homogenization in cold isotonic saline. The homogenate (10%, w/v) was centrifuged at 4500 g for 10 minutes and the supernatant was used for biochemical analysis. The MDA, SOD and TG levels were determined with commercial kits (Abcam, #ab118970; Thermofisher, #EIASODC and Abcam, ab65336) according to the manufacturer's instructions. The results were normalized to the total protein determined by BCA Protein Assay Kit (Abcam, #ab102536) according to the manufacturer's instructions. […] Liver histopathology was detected by Oil Red 0 staining. According to the standard operating procedure, some liver tissues were fixed for histopathological assessment. The other part of the liver was stored at −80° C. […] frozen sections were stained with Oil Red 0 to detect liver steatosis. The stained sections were examined by a 400× optical microscope. The level of VLDL in serum samples was examined with a Bio-Tek synergy2 Multiscan Spectrum (Botten Instruments Co.). To evaluate alcoholic liver injury, the index of liver lipid metabolism (i.e., the triglyceride (TG) level in liver tissue) and the activity of serum Very Low Density Lipoprotein (VLDL) were also measured in the mice treated as described above in connection with FIG. 9A. […] The data in both FIGS. 9A and 9B are expressed as mean±SD (n=8); *p<0.01 vs control; #p<0.01 vs alcohol exposure.

[4] = system: mammalian cell lines (insulinogenic (MING), neuronlike (LN229), muscle-like (C2C12), and normal hepatocyte (AML12) cells); experiment: NAD+ levels in mammalian cell lines treated with NADH, NRH or NMN; details: 1 mM, 3 h; all cell lines
Procedure: Also, cells were cultured as follows. LN229, Neuro2a, and C2C12 cells were grown in Dulbecco's modified Eagle's medium (DMEM) supplemented with 10% fetal bovine serum (FBS), 100 units/ml penicillin, and 100 μg/ml streptomycin. […] AML12 cells were cultured in a 1:1 mixture of DMEM high glucose/Ham's F-12 with I-glutamine and supplemented with 10% FCS, 15 mM HEPES, 40 ng/ml dexamethasone, 0.005 mg/ml human recombinant insulin, 5 ng/ml sodium selenite and 0.005 mg/ml transferrin (Sigma Aldrich).
The cells were seeded in 6-well plates until they reached approximately 80% confluence. […] The number of cells was counted by hemocytometer and trypan blue. The harvested cells were then pelleted at 3000×g for 3 min. After eliminating the residual medium, the cells were lysed with 7% perchloric acid to preserve NAD+, and then neutralized with NaOH (2 M) and K2HPO4 (500 mM).

[5] = 500 μM HP + 250 μM compound, AML12 cells

NC(=O)C1=CN([C@@H]2O[C@H](COP(=O)(O)OP(=O)(O)OC[C@H]3O[C@@H](n4cnc5c(N)ncnc54)C(O)C3O)C(O)C2O)C=CC1 (some centres unmarked) [NADH, nicotinamide adenine dinucleotide (NAD)+hydrogen (H)]
effect on NAD+ levels under HP (AML12 cells; [5]): protective effect
effect on cell survival under HP (AML12 cells; [5]): protective effect
NAD+ level in HP co-treated cells (AML12 cells; 500 μM HP + 1 mM NADH, AML12 cells): remained high
cell survival rate under HP+NADH treatment (AML12 cells; 500 μM HP + 1 mM NADH, AML12 cells (HP alone 12%)): ~72%
MDA content in the liver (male C57BL/6J mice [1]): significantly reduce
SOD activity in the liver (male C57BL/6J mice [1]): increase
degree of liver fatty degeneration (Oil Red O) (male C57BL/6J mice [2]): noticeably decreased
liver TG level vs alcohol exposure alone (male C57BL/6J mice [3]): decreased
liver index vs alcohol exposure alone (male C57BL/6J mice [3]): decreased
serum VLDL level vs alcohol exposure alone (male C57BL/6J mice [3]): decreased
induced NAD+ levels compared with NMN [4]: much higher than those induced by NMN
